# Laboratory results as given in patent US7964613B2 (Asahi Kasei Pharma Corporation, priority 2007, dated 2011).
# Assays:
# intraocular pressure [1] = test: Intraocular pressure reduction enhancing action in monkey; type: in vivo; conditions: cynomolgus monkey, 0.01 weight % aqueous solution, 30 μL
# Protocol: Moreover, as for the test compound used for combination use, similar effect can be obtained also with the compounds of the present invention represented with the example numbers mentioned in Test Example 3. The test is performed by using cynomolgus monkeys sufficiently naturalized for the operation of fixation on a monkey chair and ophathalmotonometry.
# As the test compound, the 19-1 compound is dissolved in physiological saline, and the solution is neutralized by addition of sodium hydroxide (pH 7.0 to 8.0) to prepare a 0.01 weight % aqueous solution (19-1 compound aqueous solution). As a drug for combination use, latanoprost (trade name: Xalatan, Pfizer) is used as the marketed formulation per se. The test aqueous solution or the drug for combination use is instilled to the left eye, and the right eye is not treated (control eye). […] After initial intraocular pressure values of the monkeys are measured for each group, 30 μL of physiological saline is instilled to the control group, single drug group 1, and single drug group 2, and latanoprost is instilled in the same volume to the combination use group. […] Then, the intraocular pressure is measured over time for each group.
# intraocular pressure [2] = test: Rabbit intraocular pressure reduction enhancing action, Test Example 7-1 (combination use); type: in vivo, Japanese white rabbit; conditions: 19-1 compound 0.01 weight % aqueous solution 50 μL, left-right eye difference at 2, 4, 6 hours, six rabbits
# Protocol: However, the effect is not limited to the 19-1 compound, and the ophthalmic solution concentration of the 19-1 compound is not limited to those used in this test example. Moreover, as for the test compound used for combination use, similar effect can be obtained also with the compounds of the present invention represented with the example numbers mentioned in Test Example 3.
# As a test compound, the 19-1 compound was dissolved in physiological saline, and the solution was neutralized by addition of sodium hydroxide (pH 7.0 to 8.0) to prepare a 0.01 weight % aqueous solution (19-1 compound aqueous solution). As the drugs for combination use, isopropyl unoprostone (trade name: Rescula, Santen Pharmaceutical) was used as a prostaglandin-related drug, and brinzolamide hydrochloride (trade name: Azopt, Alcon Japan) was used as […], as the marketed formulations as they were.
# A Japanese white rabbit having a body weight of about 2 kg was placed in a positioner and naturalized for one week before the experiment. An opthalmologic local anesthesant (Benoxil) was administered to both eyes, and then intraocular pressure before instillation was measured by using a tonometer (Classic 30, Solan). A test aqueous solution or the drug for combination use was administered to the left eye, and the right eye was not treated (control eye). The test groups consisted of (1) control group, (2) group instilled only with the 19-1 compound aqueous solution (single drug group 1), (3) group instilled only with the drug for combination use (single drug group 2), and (4) group instilled with the drug for combination use and the 19-1 compound aqueous solution (combination use group), and six rabbits were used for each group. As for the rabbits of these groups, 50 μL of physiological saline was first instilled to the control group, single drug group 1, and single drug group 2, and the drug for combination use was first instilled in the same volume to the combination use group. […] The intraocular pressure thereafter was measured for each group 2, 4 and 6 hours after the second administration of the test compound, and the difference of the measured values for the left and right eyes at each measurement time was considered an intraocular pressure reduction value of each group. The largest difference of the intraocular pressure values for the left and right eyes among those of the measured values of the measurement times was considered the maximum intraocular pressure reduction value (max ? IOP) of each drug group.
# hippocampus nerve cells = test: Effect of neurite outgrowth; type: cell-based, Wistar rat; conditions: 22 hours
# Protocol: A Lab-Tek culture slide (4-well) was coated with poly-L-lysine (Sigma). A pregnant Wistar rat was used, and anesthetized with ether on day 18 of gestation. Then, a rat fetus was taken out from the rat, and the hippocampus was extracted from the brain of the fetus, put into a phosphate buffered physiological saline containing 0.1% trypsin, and incubated at 37° C. for 10 minutes. The hippocampus precipitated by centrifugation was ground in a medium containing 10% heat-inactivated fetal bovine serum by using a pipet to obtain hippocampus nerve cells. The cells were finally suspended in a medium containing B27 Supplement (Gibco), and plated on the preliminarily coated Lab-Tek culture slide at a density of 50,000 cells/well. After adhesion of the cells (about 2 hours), a drug was added at a desired concentration, and the slide was further incubated at 37° C. for 22 hours under 5% CO2. […]
# After the incubation, the cells were fixed with 4% paraformaldehyde, and immunostained by using rabbit anti-beta-III-tubulin antibodies (Covance). Images of the nerve cells were captured into a computer by using a digital camera (DP-70, Olympus) installed in a fluorescence microscope (Olympus). Images of 20 to 30 of arbitrary sites on the slide were captured, and lengths of the axial fivers of 200 to 300 nerve cells were measured by using NIH imaging software for each drug. […]
SMILES,intraocular pressure reducing action in single drug group 1 (intraocular pressure [1]),"Max IOP (maximum intraocular pressure reduction value) (intraocular pressure [2]; Table 4, Azopt 50 μL) [mmHg]","Max IOP (maximum intraocular pressure reduction value) (intraocular pressure [2]; Table 5, Rescula 50 μL) [mmHg]",neurites extended compared with non-treated nerve cells (hippocampus nerve cells; concentration of 1 μM) [%],neurites extended compared with non-treated nerve cells (hippocampus nerve cells; concentration of 10 μM) [%]
"N[C@H]1CCN(S(=O)(=O)c2cccc3cncc(Cl)c23)C1 [Example 19-1, (S)-3-Amino-1-(4-chloro-5-isoquinolinesulfonyl)pyrrolidine]",exceeding that of the control group,4.3,4.3,,
"CN[C@H]1CCN(S(=O)(=O)c2cccc3c(O)ncc(Cl)c23)C1 [Example 36-1, (S)-1-(1-Hydroxy-4-chloro-5-isoquinolinesulfonyl)-3-(methylamino)pyrrolidine]",,,,28,43
